Our source for the IC50 values is patent publication US20240025899A1, “TRIHETEROCYCLIC DERIVATIVE, AND PHARMACEUTICAL COMPOSITION AND APPLICATION THEREOF” (SHANGHAI DE NOVO PHARMATECH CO., LTD., priority 2020, published 2024).

For one assay, the target named is hERG channel (Homo sapiens (Human), UniProt Q12809). The assay can be described thus: Cardiac safety evaluation, hERG study (QPatch whole-cell recording). The following applies: CHO cell line expressing hERG channel. The assay is classed as cell-based. Here is the method: In this experiment, a CHO cell line stably transfected with hERG cDNA and expressing p15 hERG channel was used. Cells were incubated at 37° C. in a humidified incubator containing 5% CO2 in medium (Ham's F12, 10% v/v FBS, 100 μg/mL hygromycin B, 100 μg/mL geneticin) (from Invitrogen). Cells were grown under the above conditions and reached approximately 80-90% of the confluency. Cells were treated with Detachin (Genlantis) for 3 to 5 minutes. The medium was titrated 15 to 20 times at 37° C., and then the cells were resuspended in CHO-S-SFM II medium (serum-free medium, Invitrogen) buffered with HEPES (25 mM). Cells used for QPatch studies must meet the following criteria: Most suspension cells should be single and isolated under microscopy; viability should be greater than 95%; cell density in the final suspension should be in the range of 3 to 8×10^6 cells/mL before application to the QPatch stir chamber. Cells meeting the above conditions can be used for recordings within 4 hours of harvest.
Test compounds were made into 10 mM DMSO stock solutions. Six doses (30, 10, 3, 1, 0.3 and 0.1 μM) were selected to obtain the fitted curves and IC50. The final DMSO concentration was 0.1% or less. The IC50 of the positive control cisapride was assessed at doses of 3, 1, 0.3, 0.1, 0.03 and 0.01 μM, respectively. Composition of […] for electrophysiological recordings: CaCl2 2 mM, MgCl2 1 mM, KCl 4 mM, NaCl 145 mM, Glucose 10 mM, HEPES 10 mM, pH 7.4 (NaOH), composition of external solution: CaCl2 […], MgCl2 1.75 mM, KCl 120 mM, HEPES 10 mM, EGTA 5 mM, Na-ATP 4 mM, pH 7.25 (KOH) (all reagents used were from sigma).
Whole-cell recordings were performed using automated QPatch (Sophion Biosciences, Denmark). Cells were recorded for 120 s to assess current stability. The above voltages were then applied to the cells every 15 s throughout the procedure. […]
The data were analyzed with Sophion Assay software (determination software V5.0), Microsoft Excel and Graphpad Prism 5.0 to obtain IC50 of compounds.
For orientation: hERG is a cardiac potassium channel; its block is linked to QT prolongation.

The target in a further assay is CYP2C19 (Homo sapiens (Human), UniProt P33261). As to the kind of experiment: Cytochrome oxidase P450 inhibition study, CYP2C19. The class given is in vitro ADME. The following applies: human liver microsomes; read-out: IC50 2C19. As to the method: (§1) LC-MS/MS methods were used to evaluate the inhibitory effects of compounds on CYP2C19, 2D6 and 3A4 subtypes. In this method, the test compound was mixed with a solution of human liver microsomes containing CYP model substrates, and incubated together under the addition of NADPH, then the inhibitory IC50 of the compound on CYP2C19, 2D6 and 3A4 was calculated by measuring the amount of metabolites of the model substrate in the reaction solution. The specific experimental method is as follows:
(§2) Compounds to be tested were prepared as stock solutions at 10 mM concentration with DMSO and then diluted to 4 mM with acetonitrile solution. At the same time, the corresponding reference inhibitor solutions for CYP subtypes were prepared, for example, the reference inhibitor was Ketoconazole, then these two compounds were prepared separately ([…] of inhibitor DMSO stock solution+[…] of acetonitrile), and the samples prepared under the above conditions were at 400× concentration. Then, the above solution was 3-fold diluted with DMSO/acetonitrile mixture (v/v: 40/60) to prepare the final test solution, and seven concentration points were set for each test compound, and the initial test final concentration was 10 μM. […]
(§3) […] of human liver microsome solution (0.2 mg/mL) was added to each well containing the test compound in the 96-well plate, and then 2 mL of the final test sample of test compounds prepared by serial dilution as described above was added thereto; for each well corresponding to the reference inhibitors, […] of human liver microsome solution (0.2 mg/mL) and 1 mL of the final test sample were added. […] The inhibition rate was determined by comparing the amount of model substrate metabolites at each test concentration without test substance addition, in the GraphPad Prism 5.0 software, the logarithm of the test concentration was used as the abscissa and the inhibition rate was used as the ordinate to perform a linear regression (Sigmoidal (non-linear) dose-response model) analysis to obtain the IC50 value of the test compound.
In general terms: Microsomes from liver hold many membrane-bound enzymes, among them those of drug oxidation.

A further assay deals with ATR/ATRIP kinase (Homo sapiens (Human), UniProt Q13535). The assay can be described thus: ATR enzyme assay (HTRF, phosphorylation of substrate protein P53). The class given is biochemical. The following applies: substrate P53, TR-FRET. As to the method: In this experiment, the phosphorylation level of substrate protein P53 (Eurofins, 14-952) was detected by HTRF technology to measure the activity of ATR/ATRIP (Eurofins, 14-953) kinase. Reaction buffer (25 mM HEPES pH 8.0, 0.01% Brij-35, 1% Glycerol, 5 mM DTT, 1 mg/mL BSA), termination buffer (12.5 mM HEPES pH 8.0, 0.005% Brij-35, 0.5% Glycerol, 250 mM EDTA) and assay buffer (50 mM HEPES pH 7.0, 150 mM NaCl, 267 mM KF, 0.1% sodium cholate, 0.01% Tween 20) were prepared in advance. ATR/ATRIP was diluted with reaction buffer to a working solution of 2 ng/μL, and the substrate protein P53 was diluted with reaction buffer to a working solution of 80 nM, and 4 nM of ATP (Sigma, A2383) working solution (containing 40 mM MnCl2) was prepared with reaction buffer. The compound was 3-fold diluted with DMSO, then diluted with reaction buffer into a working solution, then added to a 384-well plate at 2.5 μL/well, and centrifuged at 1500 rpm for 40 s. Then 2.5 μL of ATR/ATRIP working solution, P53 working solution and ATP working solution were added into the 384-well plate, centrifuged at 1500 rpm for 40 s and reacted at room temperature for 30 minutes. After the reaction was completed, 5 μL of termination buffer was added to each well, and centrifuged at 1500 rpm for 40 s. Antibody working solution containing 0.083 μg/mL anti-phospho-p53 (Ser15)-K (CisBio, cat. 61P08KAE) and 5 μg/mL anti-GST-d2 (CisBio, cat. 61GSTDLA) was prepared with assay buffer and added to the 384-well plate at 5 μL/well, then centrifuged at 1500 rpm for 40 s and reacted overnight at room temperature. Microplate reader (Tecan, Infinite M1000 Pro) was used to detect TR-FRET, and the data were analyzed with Graphpad software, and the four-parameter equation was used to fit the curve and calculate the IC50 value of the inhibitor (Table 1).
Chain of ATR/ATRIP kinase (Q13535 whole entry): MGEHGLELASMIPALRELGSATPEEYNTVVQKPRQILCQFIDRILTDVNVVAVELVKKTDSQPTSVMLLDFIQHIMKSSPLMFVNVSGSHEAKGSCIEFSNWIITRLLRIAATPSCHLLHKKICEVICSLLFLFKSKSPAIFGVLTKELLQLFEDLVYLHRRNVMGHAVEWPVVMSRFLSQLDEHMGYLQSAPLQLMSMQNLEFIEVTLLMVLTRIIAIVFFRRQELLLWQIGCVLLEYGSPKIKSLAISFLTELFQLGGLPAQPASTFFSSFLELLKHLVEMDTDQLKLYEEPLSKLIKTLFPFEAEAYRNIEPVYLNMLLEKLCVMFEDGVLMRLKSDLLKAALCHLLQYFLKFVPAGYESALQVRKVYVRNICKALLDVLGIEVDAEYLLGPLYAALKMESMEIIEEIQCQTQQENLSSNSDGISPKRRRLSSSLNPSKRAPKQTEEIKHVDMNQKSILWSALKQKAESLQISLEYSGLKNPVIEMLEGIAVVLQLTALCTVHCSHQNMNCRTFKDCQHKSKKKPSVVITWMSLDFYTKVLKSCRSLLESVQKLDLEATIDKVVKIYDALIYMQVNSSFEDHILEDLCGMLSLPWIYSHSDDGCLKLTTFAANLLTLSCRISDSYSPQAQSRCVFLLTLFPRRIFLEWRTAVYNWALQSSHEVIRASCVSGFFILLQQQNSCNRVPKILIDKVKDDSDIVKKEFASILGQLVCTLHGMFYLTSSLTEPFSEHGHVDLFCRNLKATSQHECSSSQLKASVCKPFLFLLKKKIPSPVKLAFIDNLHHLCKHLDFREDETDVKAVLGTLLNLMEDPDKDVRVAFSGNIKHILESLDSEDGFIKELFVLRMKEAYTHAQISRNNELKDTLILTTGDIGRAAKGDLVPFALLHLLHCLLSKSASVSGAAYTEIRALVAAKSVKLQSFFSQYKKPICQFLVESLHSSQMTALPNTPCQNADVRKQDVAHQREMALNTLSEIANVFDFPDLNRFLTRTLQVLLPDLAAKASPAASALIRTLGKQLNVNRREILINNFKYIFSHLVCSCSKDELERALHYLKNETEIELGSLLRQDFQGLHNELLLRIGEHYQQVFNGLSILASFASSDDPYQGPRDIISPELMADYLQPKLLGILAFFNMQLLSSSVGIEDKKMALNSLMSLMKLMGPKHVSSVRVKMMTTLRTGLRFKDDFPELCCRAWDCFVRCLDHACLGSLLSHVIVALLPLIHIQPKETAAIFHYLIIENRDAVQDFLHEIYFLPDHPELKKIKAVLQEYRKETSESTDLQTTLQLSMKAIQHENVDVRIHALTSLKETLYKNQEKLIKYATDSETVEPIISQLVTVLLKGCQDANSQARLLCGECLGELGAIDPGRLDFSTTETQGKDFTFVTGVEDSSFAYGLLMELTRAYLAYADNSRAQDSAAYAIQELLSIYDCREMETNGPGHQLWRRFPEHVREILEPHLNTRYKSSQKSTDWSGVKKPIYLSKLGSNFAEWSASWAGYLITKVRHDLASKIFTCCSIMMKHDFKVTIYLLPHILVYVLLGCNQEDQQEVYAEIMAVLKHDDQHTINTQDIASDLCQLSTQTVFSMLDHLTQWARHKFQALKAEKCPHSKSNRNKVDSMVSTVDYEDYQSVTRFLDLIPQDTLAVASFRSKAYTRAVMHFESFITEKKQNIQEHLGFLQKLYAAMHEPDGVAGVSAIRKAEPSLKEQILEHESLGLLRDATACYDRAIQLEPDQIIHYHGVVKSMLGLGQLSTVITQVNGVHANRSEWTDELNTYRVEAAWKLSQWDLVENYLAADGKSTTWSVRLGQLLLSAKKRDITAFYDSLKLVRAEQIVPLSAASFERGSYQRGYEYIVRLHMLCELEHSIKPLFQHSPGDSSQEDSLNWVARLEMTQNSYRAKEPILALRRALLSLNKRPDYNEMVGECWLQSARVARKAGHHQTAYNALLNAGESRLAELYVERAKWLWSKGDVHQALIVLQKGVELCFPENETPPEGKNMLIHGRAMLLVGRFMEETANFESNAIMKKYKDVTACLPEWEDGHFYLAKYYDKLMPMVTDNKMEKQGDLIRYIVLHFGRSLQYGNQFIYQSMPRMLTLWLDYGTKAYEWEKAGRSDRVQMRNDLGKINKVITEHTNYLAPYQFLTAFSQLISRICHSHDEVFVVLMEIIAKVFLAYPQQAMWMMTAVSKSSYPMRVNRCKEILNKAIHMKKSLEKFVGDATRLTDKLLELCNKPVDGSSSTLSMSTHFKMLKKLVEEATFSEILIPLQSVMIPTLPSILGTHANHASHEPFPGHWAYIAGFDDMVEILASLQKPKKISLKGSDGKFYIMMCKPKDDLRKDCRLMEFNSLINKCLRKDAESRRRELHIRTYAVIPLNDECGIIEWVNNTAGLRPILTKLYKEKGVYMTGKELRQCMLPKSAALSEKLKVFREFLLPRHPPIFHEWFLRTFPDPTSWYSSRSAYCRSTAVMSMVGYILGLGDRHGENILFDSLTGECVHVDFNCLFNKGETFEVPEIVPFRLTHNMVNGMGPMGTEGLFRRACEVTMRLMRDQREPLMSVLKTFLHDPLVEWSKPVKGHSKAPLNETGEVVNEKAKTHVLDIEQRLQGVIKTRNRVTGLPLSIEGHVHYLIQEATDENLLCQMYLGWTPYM
Chain of ATR/ATRIP kinase (Q8WXE1 whole entry partner): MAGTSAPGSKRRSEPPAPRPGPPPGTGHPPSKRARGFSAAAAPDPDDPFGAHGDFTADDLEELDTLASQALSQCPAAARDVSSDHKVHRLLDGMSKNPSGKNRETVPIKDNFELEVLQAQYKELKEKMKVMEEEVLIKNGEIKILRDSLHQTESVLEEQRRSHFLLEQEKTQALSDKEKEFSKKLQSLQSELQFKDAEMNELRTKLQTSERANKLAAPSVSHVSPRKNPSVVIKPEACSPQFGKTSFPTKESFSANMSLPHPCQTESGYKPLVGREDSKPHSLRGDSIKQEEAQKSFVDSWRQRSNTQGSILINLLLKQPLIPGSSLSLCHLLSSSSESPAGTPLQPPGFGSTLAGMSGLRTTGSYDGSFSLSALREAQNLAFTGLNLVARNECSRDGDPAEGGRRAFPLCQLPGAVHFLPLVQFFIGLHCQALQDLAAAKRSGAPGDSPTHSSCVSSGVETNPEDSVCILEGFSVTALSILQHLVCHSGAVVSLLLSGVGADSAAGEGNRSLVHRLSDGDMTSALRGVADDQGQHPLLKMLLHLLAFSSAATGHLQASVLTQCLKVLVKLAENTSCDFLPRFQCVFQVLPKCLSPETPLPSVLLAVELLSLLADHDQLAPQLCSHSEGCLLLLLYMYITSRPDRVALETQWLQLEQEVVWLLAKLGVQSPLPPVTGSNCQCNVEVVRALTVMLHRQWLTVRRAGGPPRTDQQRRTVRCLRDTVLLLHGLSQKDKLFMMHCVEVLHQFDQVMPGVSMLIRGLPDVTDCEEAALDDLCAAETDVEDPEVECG
Background: TR-FRET usually uses a lanthanide donor and a delayed reading to cut background.

In the next assay the target is CYP3A4 (Homo sapiens (Human), UniProt P08684). The assay can be described thus: Cytochrome oxidase P450 inhibition study, CYP3A4. The assay is classed as in vitro ADME. The settings on record: human liver microsomes. Here is the method:
as §1
Compounds to be tested were prepared as stock solutions at 10 mM concentration with DMSO and then diluted to 4 mM with acetonitrile solution. At the same time, the corresponding reference inhibitor solutions for CYP subtypes were prepared, for example, the reference inhibitor was Ketoconazole, then these two compounds were prepared separately ([…] of inhibitor DMSO stock solution+[…] of acetonitrile), and the samples prepared under the above conditions were at 400× concentration. Then, the above solution was 3-fold diluted with DMSO/acetonitrile mixture (v/v: 40/60) to prepare the final test solution, and seven concentration points were set for each test compound, and the initial test final concentration was 10 μM. NADPH, CYP enzyme model substrate and human liver microsome solution were diluted to appropriate concentrations with pre-warmed potassium phosphate buffer (0.1 M, pH 7.4), respectively. The human liver microsome solution was purchased from BD Gentest (20 mg/mL, Corning, article number #452161).
[…] of human liver microsome solution (0.2 mg/mL) was added to each well containing the test compound in the 96-well plate, and then 2 mL of the final test sample of test compounds prepared by serial dilution as described above was added thereto; for each well corresponding to the reference inhibitors, […] of human liver microsome solution (0.2 mg/mL) and 1 mL of the final test sample were added. […] of the prepared corresponding model substrate was dispensed into a 96-well plate, and the microsome solution was mixed evenly, then 30 mL of the test compound/reference inhibitor-human liver microsome mixture was taken and transferred to the 96-well plate containing the substrate, and the mixture was mixed well and preheated at 37° C. for 5 minutes, then […] of 8 mM NADPH solution preheated at 37° C. was added thereto to start the reaction. A duplicate well control and a blank control without the addition of test substances were set at the same time. The 96-well plate containing a total volume of […] of reaction solution was incubated at 37° C. After the incubation, 120 μL of cold acetonitrile solution containing internal standard was added to each well to terminate the reaction, and then the 96-well plate was shaked on a microplate shaker for 5 minutes (600 rpm/min), and put into a centrifuge and centrifuged for 20 minutes at 6000 rpm, 4° C. Then 40 μL of supernatant from each well was transferred to another 96-well plate, and 80 μL of ultrapure water was added to each well, put into a shaker and mixed for 5 minutes (600 rpm/min), and centrifuged at 6000 rpm, 4° C., for 20 minutes. Then LC-MS/MS detection was performed. The inhibition rate was determined by comparing the amount of model substrate metabolites at each test concentration without test substance addition, in the GraphPad Prism 5.0 software, the logarithm of the test concentration was used as the abscissa and the inhibition rate was used as the ordinate to perform a linear regression (Sigmoidal (non-linear) dose-response model) analysis to obtain the IC50 value of the test compound.

The next assay addresses CYP2D6 (Homo sapiens (Human), UniProt P10635). The assay can be described thus: Cytochrome oxidase P450 inhibition study, CYP2D6. The assay is classed as in vitro ADME. The following applies: human liver microsomes; read-out: IC50 2D6. As to the method:
as §1, §2, §3

Counter-ions that a name gives are not always drawn. Like-named read-outs stand apart in the source and are kept apart here.

Chain of CYP3A4 (P08684 whole entry): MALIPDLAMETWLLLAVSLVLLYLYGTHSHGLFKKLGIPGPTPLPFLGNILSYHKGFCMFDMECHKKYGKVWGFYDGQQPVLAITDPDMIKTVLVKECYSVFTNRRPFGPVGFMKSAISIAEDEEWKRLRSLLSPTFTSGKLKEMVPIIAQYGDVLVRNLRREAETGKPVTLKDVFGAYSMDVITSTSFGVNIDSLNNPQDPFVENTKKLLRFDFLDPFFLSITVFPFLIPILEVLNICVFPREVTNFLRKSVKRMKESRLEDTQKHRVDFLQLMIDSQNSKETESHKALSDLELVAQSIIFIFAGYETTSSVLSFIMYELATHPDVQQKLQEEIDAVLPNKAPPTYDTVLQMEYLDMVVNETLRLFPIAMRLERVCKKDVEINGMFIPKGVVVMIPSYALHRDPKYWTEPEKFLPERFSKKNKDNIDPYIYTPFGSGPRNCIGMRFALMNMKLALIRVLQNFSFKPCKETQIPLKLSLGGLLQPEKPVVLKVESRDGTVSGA
Chain of CYP2D6 (P10635 whole entry): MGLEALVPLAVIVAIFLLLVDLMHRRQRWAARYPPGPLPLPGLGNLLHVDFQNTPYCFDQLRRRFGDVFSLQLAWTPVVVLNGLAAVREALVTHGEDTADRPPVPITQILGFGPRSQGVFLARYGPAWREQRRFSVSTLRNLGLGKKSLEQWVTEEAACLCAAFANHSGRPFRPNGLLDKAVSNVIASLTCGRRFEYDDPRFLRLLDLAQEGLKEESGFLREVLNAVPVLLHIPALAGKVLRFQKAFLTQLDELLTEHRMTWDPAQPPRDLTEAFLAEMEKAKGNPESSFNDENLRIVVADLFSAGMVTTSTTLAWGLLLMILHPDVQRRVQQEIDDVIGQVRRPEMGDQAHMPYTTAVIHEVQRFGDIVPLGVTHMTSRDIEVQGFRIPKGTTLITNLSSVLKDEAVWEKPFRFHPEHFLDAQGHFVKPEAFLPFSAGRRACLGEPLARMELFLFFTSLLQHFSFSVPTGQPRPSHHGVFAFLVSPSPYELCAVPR
Chain of CYP2C19 (P33261 whole entry): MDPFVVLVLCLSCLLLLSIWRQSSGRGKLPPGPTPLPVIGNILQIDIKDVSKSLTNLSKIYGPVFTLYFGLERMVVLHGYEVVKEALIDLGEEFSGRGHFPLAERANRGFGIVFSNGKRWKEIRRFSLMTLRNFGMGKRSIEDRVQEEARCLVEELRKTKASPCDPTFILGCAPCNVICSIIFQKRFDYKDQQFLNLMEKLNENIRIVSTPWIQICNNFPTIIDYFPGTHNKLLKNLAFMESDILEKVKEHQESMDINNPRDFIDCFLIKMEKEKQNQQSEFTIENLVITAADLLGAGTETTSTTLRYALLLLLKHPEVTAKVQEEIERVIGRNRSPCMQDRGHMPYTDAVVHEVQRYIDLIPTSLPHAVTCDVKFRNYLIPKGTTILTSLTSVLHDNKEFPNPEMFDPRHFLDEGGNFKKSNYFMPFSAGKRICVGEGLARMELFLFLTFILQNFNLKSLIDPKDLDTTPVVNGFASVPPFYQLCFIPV

The term IC50 denotes the concentration that gives 50% inhibition. With `C[C@@H]1COCCN1c1nc2c(cnn2-c2cc[nH]n2)c2c1ccn2S(=O)(=O)N(C)C` [Compound 3, (R)—N,N-dimethyl-4-(3-methylmorpholino)-6-(1H-pyrazol-3-yl)pyrazolo[3,4-b]pyrrolo[2,3-d]pyridine-1(6H)-sulfonamide trifluoroacetate], the IC50 against hERG channel is > 30 µM; on CYP2C19, > 10 µM; on ATR/ATRIP kinase, 0.00051 µM; on CYP3A4 (substrate Midazolam, read-out: IC50 3A4 (Midazolam)), > 10 µM; at CYP3A4 (substrate Testosterone, read-out: IC50 3A4 (Testosterone)), > 10 µM; at CYP2D6, > 10 µM.
